Laboratory results published in PubChem BioAssay AID256 (DTP/NCI, 2004).
Where “and” joins values, the source holds several entries; their conditions need not be identical. Identical values can stand only once. Toxic doses and inconclusive results are not listed.

Test system: CD2F1 mice, L1210 leukemia ip, survival T/C
Experiment: NCI In Vivo Anticancer Drug Screen. Data for tumor model L1210 Leukemia (intraperitoneal) in CD2F1 (CDF1) mice
Conditions: endpoint: mean survival time, higher = longer survival
Procedure, shortened: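 In this screen, transplantable tumors were grown in mice given either the compound or its vehicle. Results were expressed as the treated measurement relative to the control measurement.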

## Nc1n[nH]c(N)n1
dose: 3.2 mg/kg/injection, schedule: Q## X008 (iv), vehicle: water
  T/C: 100 % of control
dose: 6.3 mg/kg/injection, schedule: Q## X008 (iv), vehicle: water
  T/C: 103 % of control
dose: 12.5 mg/kg/injection, schedule: Q## X004 (iv), vehicle: water
  T/C: 100 % of control
dose: 12.5 mg/kg/injection, schedule: Q## X008 (iv), vehicle: water
  T/C: 102 % of control
dose: 25.0 mg/kg/injection, schedule: Q## X004 (iv), vehicle: water
  T/C: 104 % of control
dose: 25.0 mg/kg/injection, schedule: Q## X008 (iv), vehicle: water
  T/C: 101 % of control
dose: 50.0 mg/kg/injection, schedule: Q03HX024 (ip), vehicle: saline
  T/C: 103 % of control
dose: 50.0 mg/kg/injection, schedule: Q## X004 (iv), vehicle: water
  T/C: 103 % of control
dose: 50.0 mg/kg/injection, schedule: Q## X008 (iv), vehicle: water
  T/C: 103 % of control
dose: 50.0 mg/kg/injection, schedule: Q## X068 (ip), vehicle: water
  T/C: 110 % of control
dose: 50.0 mg/kg/injection, schedule: Q#A X002 (iv), vehicle: water
  T/C: 106 % of control
dose: 100.0 mg/kg/injection, schedule: Q01DX007 (ip), vehicle: saline
  T/C: 113 % of control
dose: 100.0 mg/kg/injection, schedule: Q01DX009 (ip), vehicle: saline
  T/C: 104 % of control
dose: 100.0 mg/kg/injection, schedule: Q03DX003 (ip), vehicle: saline
  T/C: 105 % of control
dose: 100.0 mg/kg/injection, schedule: Q03HX024 (ip), vehicle: saline
  T/C: 117 % of control and 103 % of control and 112 % of control
dose: 100.0 mg/kg/injection, schedule: Q04DX003 (ip), vehicle: saline
  T/C: 105 % of control
dose: 100.0 mg/kg/injection, schedule: Q## X004 (iv), vehicle: water
  T/C: 105 % of control
dose: 100.0 mg/kg/injection, schedule: Q## X008 (iv), vehicle: water
  T/C: 102 % of control
dose: 100.0 mg/kg/injection, schedule: Q#A X002 (iv), vehicle: water
  T/C: 96 % of control
dose: 100.0 mg/kg/injection, schedule: Q#A X034 (ip), vehicle: water
  T/C: 118 % of control
dose: 200.0 mg/kg/injection, schedule: Q01DX017 (ip), vehicle: water
  T/C: 113 % of control
dose: 200.0 mg/kg/injection, schedule: Q03DX003 (ip), vehicle: saline
  T/C: 105 % of control
dose: 200.0 mg/kg/injection, schedule: Q04DX003 (ip), vehicle: saline
  T/C: 106 % of control
dose: 200.0 mg/kg/injection, schedule: Q## X004 (iv), vehicle: water
  T/C: 105 % of control
dose: 200.0 mg/kg/injection, schedule: Q## X068 (ip), vehicle: water
  T/C: 190 % of control
dose: 200.0 mg/kg/injection, schedule: Q#A X002 (iv), vehicle: water
  T/C: 103 % of control
dose: 200.0 mg/kg/injection, schedule: Q#A X010 (ip), vehicle: water
  T/C: 106 % of control
dose: 400.0 mg/kg/injection, schedule: Q01DX001 (iv), vehicle: water
  T/C: 104 % of control
dose: 400.0 mg/kg/injection, schedule: Q03DX003 (ip), vehicle: saline
  T/C: 113 % of control
dose: 400.0 mg/kg/injection, schedule: Q03HX024 (ip), vehicle: saline
  T/C: 203 % of control and 221 % of control and 237 % of control
dose: 400.0 mg/kg/injection, schedule: Q04DX003 (ip), vehicle: saline
  T/C: 106 % of control
dose: 400.0 mg/kg/injection, schedule: Q## X068 (ip), vehicle: water
  T/C: 116 % of control
dose: 400.0 mg/kg/injection, schedule: Q#A X002 (iv), vehicle: water
  T/C: 110 % of control
dose: 400.0 mg/kg/injection, schedule: Q#A X010 (ip), vehicle: water
  T/C: 113 % of control
dose: 400.0 mg/kg/injection, schedule: Q#A X018 (ip), vehicle: water
  T/C: 203 % of control
dose: 400.0 mg/kg/injection, schedule: Q#A X034 (ip), vehicle: water
  T/C: 208 % of control
dose: 512.0 mg/kg/injection, schedule: Q12HX018 (ip), vehicle: saline
  T/C: 104 % of control
dose: 800.0 mg/kg/injection, schedule: Q01DX001 (iv), vehicle: water
  T/C: 103 % of control
dose: 800.0 mg/kg/injection, schedule: Q01DX017 (ip), vehicle: water
  T/C: 150 % of control
dose: 800.0 mg/kg/injection, schedule: Q#A X002 (iv), vehicle: water
  T/C: 110 % of control
dose: 800.0 mg/kg/injection, schedule: Q#A X010 (ip), vehicle: water
  T/C: 122 % of control
dose: 800.0 mg/kg/injection, schedule: Q#A X018 (ip), vehicle: water
  T/C: 181 % of control
dose: 800.0 mg/kg/injection, schedule: Q#A X034 (ip), vehicle: water
  T/C: 97 % of control
dose: 1024.0 mg/kg/injection, schedule: Q12HX018 (ip), vehicle: saline
  T/C: 120 % of control
dose: 1600.0 mg/kg/injection, schedule: Q01DX001 (iv), vehicle: water
  T/C: 105 % of control
dose: 1600.0 mg/kg/injection, schedule: Q01DX017 (ip), vehicle: water
  T/C: 165 % of control
